{"source": "patent US10321681B2", "about": "“Plant support formulation, vehicle for the delivery and translocation of phytologically beneficial substances and compositions containing same” (NORTH-WEST UNIVERSITY, priority 2006, dated 2019)", "tested_on": "maize", "experiment": "Captan with Elementol R seed treatment, dry maize field trial", "format": "in vivo", "details": "versus untreated seeds", "protocol": "A genetically modified cultivar, supplied by a large seed producing company was used. One bag of treated seed was split and one portion of the seeds in the bag was treated with Captan, while another portion was treated with Captan mixed with Elementol R in the following manner. Captan is a broad-spectrum contact fungicide that has been used on corn seed since the 1950s. It is usually dyed pink and leaves a pink dust in the seed bag and planter box. It is very effective against a broad range of soil fungi. The prescribed amount of Captan was mixed directly with the seeds (Captan reference group). For the test group, seeds were mixed with a similar amount of Captan in 2% Elementol R. The seeds of both groups were briefly mixed or stirred with their individual treatment and then left to dry. Seeds were planted in blocks of 3 or 5 rows stretching the length of the maize field with untreated block s on both sides of each of the treatment groups in the North West Province, South Africa. Culturing was done according to general farming practices with no irrigation.\nPlants of each of the untreated, the reference Captan group and the Elementol R/Captan group were collected by pulling up every fifth plant in a row. […]\nThe total plant mass, the root mass and the leaf mass of each plant were determined. […]", "data": [{"compound": "O=C1C2CC=CCC2C(=O)N1SC(Cl)(Cl)Cl", "note": "(centres unmarked) [Captan]", "values": [{"measurement": "root mass", "value": "only slightly enhanced root mass"}, {"measurement": "leaf mass / growth of the plant leaves", "setting": "fifty plants per group", "value": "did not result in any change of growth of the plant leaves"}]}]}
